{
  "source": "patent US9402827B2",
  "about": "“Treatment of gout” (ARDEA BIOSCIENCES, INC., priority 2010, dated 2016)",
  "key": {"TNF-α": {"tested_on": "TNF-α", "experiment": "In vitro THP-1 (human cell) assay, TNF-α", "assay_type": "cell-based", "conditions": "differentiated THP-1 cells, 6 hours, FIG. 3A", "description": "(§1) Uric acid (2 g, Sigma, Cat #U0881, Log S89329-419) was heated in a flask at 200° C. for 2 hours. Endotoxin free water (396 mL) followed by aqueous sodium hydroxide solution (2.375 mL of 5N or 1.19 mL 10N) were added and heated on a stir plate until the uric acid dissolved. […] The solution was stirred at room temperature for 24 hours and then centrifuged at 1000 g for 10 min. The supernatant was discarded and resuspended in PBS and centrifuged at 1000 g for 10 min; this step was repeated twice. The washed crystals were heated at 60° C. until dry and then autoclaved at 200° C. for 2 hours. The crystals were then weighed and resuspended in PBS at a concentration of 26 mg/ml.\n(§2) THP-1 cells were differentiated with 0.5 μM of phorbol myristate acetate (PMA) incubated for 3 hours. Cells were then spun down and washed once with HBSS. 1.25×10^6/mL cells were plated in white clear bottom white 96 well plate in 100 μL volume and incubated overnight. The next day the media was aspirated from the wells. 100 μL of 1× Optimem along with the compounds were added."}, "gout flares [1]": {"tested_on": "gout flares", "experiment": "Phase II clinical trial, gout dose response study: incidence of gout flares (Example 4)", "assay_type": "in vivo, human"}, "[2]": {"tested_on": "monosodium urate (MSU) crystal injection-induced inflammation", "experiment": "In vivo MSU-induced inflammation, rat air pouch study (Example 3B)", "design": "species or system Sprague-Dawley rats", "conditions": "for Extravasation (optical absorbance at 620 nm), Av / Extravasation (optical absorbance at 620 nm), individual rats 1-10 / Exudate volume, Av / Exudate volume, individual rats 1-10 / Total white blood cell count, Av / Total white blood cell count, individual rats 1-10: 4 h after MSU", "description": "(Air Pouch studies) were unpacked, placed in cages, a health inspection performed and a number assigned. […] Under anesthesia, 30 mL sterile air was injected subcutaneously on day 0 and day 3. Vehicle (water) or Lesinurad were administered orally. On the day of the experiment, rats were dosed with Vehicle, Lesinurad p.o., and/or colchicine s.c. (Sigma, Cat.#C9754, Lot.#188K1131). […] The pouch was gently massaged and the exudate was immediately removed from the air pouch. The exudate volume was measured and recorded for each animal. […] The supernatants were stored at −20° C. for cytokine analysis. […] Plasma extravasation was measured by optical absorbance at 620 nm for each exudate sample."}, "IL-1β [3]": {"tested_on": "IL-1β", "experiment": "Effect on IL-1β release after stimulation with ATP or MSU crystals (Example 1, FIG. 1)", "assay_type": "cell-based", "conditions": "within 1 hour of stimulation with ATP (5 mM) or 1 μg MSU crystals", "description": "FIG. 1 illustrates the effect of Lesinurad on IL-1β release within 1 hour of stimulation with ATP (5 mM) or 1 μg MSU (monosodium urate) crystals (compd1=Lesinurad; C-1inh=caspase-1 inhibitor).\nActivation of the inflammasome results in the release of preformed IL-1, which goes on to activate other targets as well as increase the production of IL-1 itself."}, "gout flares [4]": {"tested_on": "gout flares", "experiment": "Phase II clinical trial, gout dose response study: incidence of gout flares (Example 4)", "assay_type": "in vivo, human", "description": "Purpose: To compare the proportion of subjects whose serum urate (sUA) level is <6.0 mg/dL after 28 days of dosing by treatment group. Official Title: Randomized, Double-Blind, Multicenter, Placebo-Controlled, Safety and Efficacy Study of Lesinurad Versus Placebo in the Treatment of Hyperuricemia in Patients With Gout Experimental dosage form: 200 mg capsule of Lesinurad, with appropriate pharmaceutically acceptable excipients Design: • Control: Placebo Control • Endpoint Classification: Safety/Efficacy Study • Intervention Model: Parallel Assignment • Masking: Double Blind (Subject, Caregiver, Investigator, Outcomes Assessor) • Primary Purpose: Treatment Primary Outcome Measures: Compare the proportion of subjects whose serum urate (sUA) level is <6.0 mg/dL after 28 days of dosing by treatment group. […] [table] Inclusion Criteria: • Male or post-menopausal or surgically sterile female. • Hyperuricemic (i.e., screening sUA≧8 mg/dL). • Meets criteria for the diagnosis of gout as per the American Rheumatism Association (ARA) Criteria for the Classification of Acute Arthritis of Primary Gout (see Appendix B). • Willing and able to give informed consent and adhere to visit/protocol schedules (informed consent must be given before the first study procedure is performed).", "remark": "listed apart in the source"}, "IL-1β [5]": {"tested_on": "IL-1β", "experiment": "In vitro THP-1 (human cell) assay, IL-1β", "assay_type": "cell-based", "conditions": "differentiated THP-1 cells, 6 hours, FIG. 3B", "description": "as §1, §2"}},
  "note": "“And” between values parts separate entries of the source, which are not always exact repeats. Identical values can stand only once.",
  "data": [
    {"smiles": "O=C(O)CSc1nnc(Br)n1-c1ccc(C2CC2)c2ccccc12", "note": "[Lesinurad, 2-(5-bromo-4-(4-cyclopropylnaphthalen-1-yl)-4H-1,2,4-triazol-3-ylthio)acetic acid]", "values": [
      {"measurement": "IC50", "setting": "TNF-α", "value": "~52", "unit": "µM"},
      {"measurement": "% of patients with Flares by Dose at Time of Flare", "setting": "gout flares [1]; 400 mg at time of flare (1/65)", "value": "2% (1/65)"},
      {"measurement": "Mean Duration of Flares (by dose at time of flare)", "setting": "gout flares [1]; 600 mg at time of flare", "value": 1.7, "unit": "days"},
      {"measurement": "% Patients with Flares", "setting": "gout flares [1]; Randomized dose group 400 mg, N 33", "value": 12, "unit": "%"},
      {"measurement": "Mean Duration of Flares", "setting": "gout flares [1]; Randomized dose group 600 mg", "value": 1.5, "unit": "days"},
      {"measurement": "Duration of flares, in words", "setting": "gout flares [1]; across dose groups 200-600 mg", "value": "shorter at higher doses"},
      {"measurement": "Flares in the first week out of total flares on drug", "setting": "gout flares [1]; first week, patients receiving 200 mg QD", "value": "6/10"},
      {"measurement": "Extravasation (optical absorbance at 620 nm), Av", "setting": "[2]; Lesinurad 0.1 mg/kg p.o.", "value": 1.87},
      {"measurement": "Extravasation (optical absorbance at 620 nm), individual rats 1-10", "setting": "[2]; Lesinurad 0.1 mg/kg p.o.", "value": "1.84 and 1.83 and 1.89 and 2.19 and 1.54 and 2.14 and 1.94 and 1.61 and 1.90 and 1.88"},
      {"measurement": "Exudate volume, Av", "setting": "[2]; Lesinurad 0.1 mg/kg p.o.", "value": 9.18, "unit": "mL"},
      {"measurement": "Exudate volume, individual rats 1-10", "setting": "[2]; Lesinurad 0.1 mg/kg p.o.", "value": "8 mL (3×) and 9 mL and 11 mL and 10 mL and 9.6 mL and 9.2 mL and 7 mL and 12 mL"},
      {"measurement": "Total white blood cell count, Av", "setting": "[2]; Lesinurad 0.1 mg/kg p.o.", "value": "0.92 ×10^8"},
      {"measurement": "Total white blood cell count, individual rats 1-10", "setting": "[2]; Lesinurad 0.1 mg/kg p.o.", "value": "0.14 ×10^8 (2×) and 0.07 ×10^8 and 2.28 ×10^8 and 2.75 ×10^8 and 0.48 ×10^8 and 0.92 ×10^8 and 0.03 ×10^8 and 2.00 ×10^8 and 0.39 ×10^8"},
      {"measurement": "Extravasation (optical absorbance at 620 nm), Av", "setting": "[2]; Lesinurad 1 mg/kg p.o.", "value": 1.87},
      {"measurement": "Extravasation (optical absorbance at 620 nm), individual rats 1-10", "setting": "[2]; Lesinurad 1 mg/kg p.o.", "value": "1.79 (2×) and 2.01 and 2.27 and 1.36 and 1.94 and 1.67 and 1.98 and 2.04 and 1.83"},
      {"measurement": "Exudate volume, Av", "setting": "[2]; Lesinurad 1 mg/kg p.o.", "value": 9.68, "unit": "mL"},
      {"measurement": "Exudate volume, individual rats 1-10", "setting": "[2]; Lesinurad 1 mg/kg p.o.", "value": "9.6 mL and 7 mL (2×) and 13 mL and 5 mL and 10 mL and 12 mL and 14 mL and 7.8 mL and 11.4 mL"},
      {"measurement": "Total white blood cell count, Av", "setting": "[2]; Lesinurad 1 mg/kg p.o.", "value": "0.41 ×10^8"},
      {"measurement": "Total white blood cell count, individual rats 1-10", "setting": "[2]; Lesinurad 1 mg/kg p.o.", "value": "0.19 ×10^8 and 0.44 ×10^8 and 0.68 ×10^8 and 0.01 ×10^8 and 0.48 ×10^8 and 0.54 ×10^8 and 0.26 ×10^8 and 1.17 ×10^8 and 0.34 ×10^8 and 0.02 ×10^8"},
      {"measurement": "Extravasation, in words", "setting": "[2]; Lesinurad 10 mg/kg", "value": "reduced extravasation"},
      {"measurement": "Extravasation (optical absorbance at 620 nm), Av", "setting": "[2]; Lesinurad 10 mg/kg p.o.", "value": 1.03},
      {"measurement": "Extravasation (optical absorbance at 620 nm), individual rats 1-10", "setting": "[2]; Lesinurad 10 mg/kg p.o.", "value": "1.20 and 0.93 and 0.89 and 0.77 and 0.71 and 0.97 and 0.82 (2×) and 1.94 and 1.25"},
      {"measurement": "Exudate volume, Av", "setting": "[2]; Lesinurad 10 mg/kg p.o.", "value": 8.29, "unit": "mL"},
      {"measurement": "Exudate volume, individual rats 1-10", "setting": "[2]; Lesinurad 10 mg/kg p.o.", "value": "7 mL and 10 mL and 6 mL (2×) and 8 mL and 9 mL (2×) and 12 mL and 8.4 mL and 7.5 mL"},
      {"measurement": "Total white blood cell count, Av", "setting": "[2]; Lesinurad 10 mg/kg p.o.", "value": "0.57 ×10^8"},
      {"measurement": "Total white blood cell count, individual rats 1-10", "setting": "[2]; Lesinurad 10 mg/kg p.o.", "value": "0.60 ×10^8 and 0.15 ×10^8 and 0.08 ×10^8 and 0.16 ×10^8 and 0.55 ×10^8 and 1.01 ×10^8 and 1.02 ×10^8 and 0.95 ×10^8 and 0.29 ×10^8 and 0.90 ×10^8"},
      {"measurement": "Exudate volume, in words", "setting": "[2]; Lesinurad 10 mg/kg/day", "value": "significantly reduced exudate volume"},
      {"measurement": "Number of white blood cells, in words", "setting": "[2]; Lesinurad 0.1, 1 and 10 mg/kg/day", "value": "significantly lowered the number of white blood cells"},
      {"measurement": "Exudate volume, in words", "setting": "[2]; Lesinurad 0.1 and 1 mg/kg/day", "value": "did not significantly reduce exudate volume"},
      {"measurement": "IL-4 levels in the exudates", "setting": "[2]; cytokines measured in air pouch exudates", "value": "significantly reduced IL-4 levels"},
      {"measurement": "IL-1 release", "setting": "IL-1β [3]", "value": "blocks IL-1 release very early"},
      {"measurement": "Mean Duration of Flares (by dose at time of flare)", "setting": "gout flares [4]; 200 mg at time of flare", "value": 4, "unit": "days"},
      {"measurement": "% of patients with Flares by Dose at Time of Flare", "setting": "gout flares [4]; 200 mg at time of flare (6/96)", "value": "6% (6/96)"},
      {"measurement": "Mean Duration of Flares (by dose at time of flare)", "setting": "gout flares [4]; 400 mg at time of flare", "value": 2, "unit": "days"},
      {"measurement": "% of patients with Flares by Dose at Time of Flare", "setting": "gout flares [4]; 600 mg at time of flare (3/32)", "value": "9% (3/32)"},
      {"measurement": "Mean Duration of Flares", "setting": "gout flares [4]; Randomized dose group 200 mg", "value": 4, "unit": "days"},
      {"measurement": "% Patients with Flares", "setting": "gout flares [4]; Randomized dose group 200 mg, N 31", "value": 6, "unit": "%"},
      {"measurement": "Mean Duration of Flares", "setting": "gout flares [4]; Randomized dose group 400 mg", "value": 3.8, "unit": "days"},
      {"measurement": "% Patients with Flares", "setting": "gout flares [4]; Randomized dose group 600 mg, N 32", "value": 13, "unit": "%"},
      {"measurement": "IC50", "setting": "IL-1β [5]", "value": "~30", "unit": "µM"}
    ]}
  ]
}
